Results from patent US20080280862A1, “Methods, compositions, and kits for the treatment of pain” (priority 2007, published 2008).

How the values were obtained:
[1] = tested on: carrageenan-induced pain model in rats; assay: Carrageenan pain model, mechanical allodynia by Von Frey filaments; format: in vivo, Sprague-Dawley rats; details: for Mean AUC ± SEM: AUC from 20 minutes through 120 minutes following carrageenan injection
Procedure: The carrageenan model is a fast, reliable model used to assess the ability of analgesics to block inflammatory pain. The analgesic effects of test article combinations on pain generation are assayed using the carrageenan-induced pain model in rats. Adult male Sprague-Dawley rats are administered study drugs intraperitoneally (vehicle, tricyclic compound (TCA), steroid or TCA/Steroid test article combinations) once daily for 2 days (day −2 and day −1) and 30 minutes prior to the carrageenan injection on day 0 (time=0). For the carrageenan injection, animals are lightly anesthetized and 0.1 ml of 2% carrageenan is injected into the plantar surface of the right hind paw. The positive control diclofenac at a dose of 25 mg/kg is administered intraperitoneally immediately before the carrageenan injection. Paw volumes (right and left) are measured using a plathysmometer before drug administration on day −2 and serve as a baseline measurement. The paw volumes are measured again two hours post carrageenan injection. The degree of mechanical allodynia is measured by a blinded observer using Von Frey filaments applied to the plantar surface of the hind paws in an increasing numerical order. Each filament increases the force applied on the paw. The filaments are applied until animal paw withdrawal is achieved. This procedure is carried out before drug administration (day −2), on day −1 and on day 0 at time=0, 20, 40, 60, 80 and 120 minutes post-carrageenan. The force (expressed in grams) required for paw withdrawal after carrageenan injection is subtracted from the force required for paw withdrawal before carrageenan injection. Results are expressed as mean change from baseline across five timepoints post carrageenan injection in Table 4.
For a synergy calculation, experimental data from the carrageenan study are fitted to a median-effect model and used to calculate the parameters' median-effect dose (Dm), slope (m), correlation coefficient (r), combination index (CI) and dose-reduction index (DRI). In addition, the probability of pain inhibition occurring after single-component (nortriptyline) versus the combination drug treatments are calculated from the negative change from baseline data using a Bayesian sensitivity analysis. The likelihood of pain inhibition is characterized for nortriptyline administered alone (1 mg/kg or 3 mg/kg) versus the fixed-dose combination treatments [prednisolone (0.3 mg/kg):nortriptyline (1 mg/kg) or prednisolone (1 mg/kg):nortriptyline (3 mg/kg)] each evaluated at 60 and 80 minutes for analgesic effect.
In another example, the effects of test article combinations on pain inhibition were assayed using the carrageenan model in rodents. Desipramine was tested alone and in combination at 0.3, 1, and 3 mg/kg and prednisolone was tested similarly at 0.3, 1 and 3 mg/kg IP.

TNFα = TNFα secretion by human white blood cells stimulated with PMA/ionomycin, synergy score; format: cell-based; parameters: key: S = Σ Idata(Idata−ILoewe) × ln dilution factors; volume over Loewe additivity; details: PBMC stimulated with PMA/Ionomycin
Procedure: A 100 μl suspension of diluted human white blood cells contained within each well of a polystyrene 384-well plate (NalgeNunc) was stimulated to secrete TNFα by treatment with a final concentration of 10 ng/mL phorbol 12-myristate 13-acetate (Sigma, P-1585) and 750 ng/mL ionomycin (Sigma, I-0634). Various concentrations of each test compound were added at the time of stimulation. After 16-18 hours of incubation at 37° C. in a humidified incubator, the plate was centrifuged and the supernatant transferred to a white opaque polystyrene 384-well plate (NalgeNunc, Maxisorb) coated with an anti-TNFα antibody (PharMingen, #551220). After a two-hour incubation, the plate was washed (Tecan PowerWasher 384) with PBS containing 0.1% Tween 20 and incubated for an additional one hour with another anti-TNFα antibody that was biotin labeled (PharMingen, #554511) and HRP coupled to strepavidin (PharMingen, #13047E). After the plate was washed with 0.1% Tween 20/PBS, an HRP-luminescent substrate was added to each well and light intensity measured using a LJL Analyst plate luminometer.
The synergy scores calculated for the various combinations of compounds set forth in Table 3 was calculated by the formula S=log fX log fYΣIdata(Idata−ILoewe), summed over all non-single-agent concentration pairs, and where log fX,Y are the natural logarithm of the dilution factors used for each single agent. This effectively calculates a volume between the measured and Loewe additive response surfaces, weighted towards high inhibition and corrected for varying dilution factors.

[2] = Experiment One, 3 mg/kg, 20 minutes
[3] = Experiment One, 3 mg/kg, 40 minutes
[4] = Experiment One, 3 mg/kg, 60 minutes
[5] = Experiment One, 3 mg/kg, 80 minutes
[6] = Experiment One, 3 mg/kg, 120 minutes
[7] = Experiment One, 10 mg/kg, 20 minutes
[8] = Experiment One, 10 mg/kg, 40 minutes
[9] = Experiment One, 10 mg/kg, 60 minutes
[10] = Experiment One, 10 mg/kg, 80 minutes
[11] = Experiment One, 10 mg/kg, 120 minutes
[12] = Experiment One, 20 mg/kg, 20 minutes
[13] = Experiment One, 20 mg/kg, 40 minutes
[14] = Experiment One, 20 mg/kg, 60 minutes
[15] = Experiment One, 20 mg/kg, 80 minutes

CN(C)CCC=C1c2ccccc2CCc2ccccc21 [Amitriptyline]
Mean change from baseline ± SEM ([1]; Experiment One, 1 mg/kg, 20 minutes): 3.40 ± 3.40 g
Mean change from baseline ± SEM ([1]; Experiment One, 1 mg/kg, 40 minutes): -49.80 ± 5.19 g
Mean change from baseline ± SEM ([1]; Experiment One, 1 mg/kg, 60 minutes): -113.80 ± 7.21 g
Mean change from baseline ± SEM ([1]; Experiment One, 1 mg/kg, 80 minutes): -177.80 ± 10.44 g
Mean change from baseline ± SEM ([1]; Experiment One, 1 mg/kg, 120 minutes): -231.00 ± 12.33 g
Mean change from baseline ± SEM [1, 2]: 11.40 ± 5.82 g
Mean change from baseline ± SEM [1, 3]: -56.60 ± 9.09 g
Mean change from baseline ± SEM [1, 4]: -120.60 ± 11.72 g
Mean change from baseline ± SEM [1, 5]: -173.80 ± 9.90 g
Mean change from baseline ± SEM [1, 6]: -192.10 ± 10.67 g
Mean change from baseline ± SEM [1, 7]: 11.30 ± 5.83 g
Mean change from baseline ± SEM [1, 8]: -41.90 ± 9.86 g
Mean change from baseline ± SEM [1, 9]: -99.10 ± 11.33 g
Mean change from baseline ± SEM [1, 10]: -148.90 ± 12.63 g
Mean change from baseline ± SEM [1, 11]: -177.70 ± 16.01 g
Mean change from baseline ± SEM [1, 12]: 19.90 ± 6.68 g
Mean change from baseline ± SEM [1, 13]: -33.30 ± 7.80 g
Mean change from baseline ± SEM [1, 14]: -93.30 ± 7.80 g
Mean change from baseline ± SEM [1, 15]: -138.60 ± 6.03 g
Mean change from baseline ± SEM ([1]; Experiment Two, first set of rows, 3 mg/kg, 20 minutes): -2.20 ± 3.62 g
Mean change from baseline ± SEM ([1]; Experiment Two, first set of rows, 3 mg/kg, 40 minutes): -6.19 ± 5.21 g
Mean change from baseline ± SEM ([1]; Experiment Two, first set of rows, 3 mg/kg, 60 minutes): -1.60 ± 3.83 g
Mean change from baseline ± SEM ([1]; Experiment Two, first set of rows, 3 mg/kg, 80 minutes): 15.70 ± 5.20 g
Mean change from baseline ± SEM ([1]; Experiment Two, first set of rows, 3 mg/kg, 120 minutes): 26.61 ± 4.90 g
Synergy Score based on TNF-α inhibition (TNFα; combination with Betamethasone): 0.7
Synergy Score based on TNF-α inhibition (TNFα; combination with Budesonide): 0.78
Synergy Score based on TNF-α inhibition (TNFα; combination with Clobetasol): 0.75
Synergy Score based on TNF-α inhibition (TNFα; combination with Dexamethasone): 1.2
Synergy Score based on TNF-α inhibition (TNFα; combination with Diflorasone): 0.59
Synergy Score based on TNF-α inhibition (TNFα; combination with Hydrocortisone): 0.78
Synergy Score based on TNF-α inhibition (TNFα; combination with Prednisolone): 0.68
Synergy Score based on TNF-α inhibition (TNFα; combination with Triamcinolone): 0.34

C[C@]12C=CC(=O)C=C1CC[C@@H]1[C@@H]2[C@@H](O)C[C@@]2(C)[C@H]1CC[C@]2(O)C(=O)CO [Prednisolone]
Mean AUC ± SEM ([1]; 0.3 mg/Kg): 2302 ± 634.46
Mean AUC ± SEM ([1]; 1 mg/Kg): 1583 ± 574.15
Mean change from baseline ± SEM [1, 2]: 1.10 ± 9.30 g
Mean change from baseline ± SEM [1, 3]: -52.01 ± 12.52 g
Mean change from baseline ± SEM [1, 4]: -101.90 ± 15.02 g
Mean change from baseline ± SEM [1, 5]: -159.70 ± 16.77 g
Mean change from baseline ± SEM [1, 6]: -212.90 ± 20.82 g
Mean change from baseline ± SEM [1, 7]: 5.60 ± 6.14 g
Mean change from baseline ± SEM [1, 8]: -44.30 ± 11.47 g
Mean change from baseline ± SEM [1, 9]: -97.50 ± 14.33 g
Mean change from baseline ± SEM [1, 10]: -147.30 ± 16.72 g
Mean change from baseline ± SEM [1, 11]: -193.70 ± 18.07 g
Mean change from baseline ± SEM [1, 12]: -29.40 ± 5.10 g
Mean change from baseline ± SEM [1, 13]: -82.60 ± 5.59 g
Mean change from baseline ± SEM [1, 14]: -135.80 ± 7.21 g
Mean change from baseline ± SEM [1, 15]: -189.00 ± 8.41 g
Mean change from baseline ± SEM ([1]; Experiment One, 20 mg/kg, 120 minutes): -246.20 ± 12.02 g
Mean change from baseline ± SEM ([1]; Experiment One, 35 mg/kg, 20 minutes): -13.60 ± 7.52 g
Mean change from baseline ± SEM ([1]; Experiment One, 35 mg/kg, 40 minutes): -73.60 ± 7.52 g
Mean change from baseline ± SEM ([1]; Experiment One, 35 mg/kg, 60 minutes): -130.20 ± 7.26 g
Mean change from baseline ± SEM ([1]; Experiment One, 35 mg/kg, 80 minutes): -176.60 ± 10.69 g
Mean change from baseline ± SEM ([1]; Experiment One, 35 mg/kg, 120 minutes): -216.20 ± 11.39 g
Mean change from baseline ± SEM ([1]; Experiment Two, first set of rows, 0.3 mg/kg, 20 minutes): 4.79 ± 7.92 g
Mean change from baseline ± SEM ([1]; Experiment Two, first set of rows, 0.3 mg/kg, 40 minutes): 16.77 ± 5.63 g
Mean change from baseline ± SEM ([1]; Experiment Two, first set of rows, 0.3 mg/kg, 60 minutes): 19.7 ± 5.68 g
Mean change from baseline ± SEM ([1]; Experiment Two, first set of rows, 0.3 mg/kg, 80 minutes): 24.31 ± 6.40 g
Mean change from baseline ± SEM ([1]; Experiment Two, first set of rows, 0.3 mg/kg, 120 minutes): 25.57 ± 6.79 g
Mean change from baseline ± SEM ([1]; Experiment Two, first set of rows, 1 mg/kg, 20 minutes): 27.60 ± 5.74 g
Mean change from baseline ± SEM ([1]; Experiment Two, first set of rows, 1 mg/kg, 40 minutes): 28.64 ± 5.42 g
Mean change from baseline ± SEM ([1]; Experiment Two, first set of rows, 1 mg/kg, 60 minutes): 25.54 ± 6.04 g
Mean change from baseline ± SEM ([1]; Experiment Two, first set of rows, 1 mg/kg, 80 minutes): 23.77 ± 6.08 g
Mean change from baseline ± SEM ([1]; Experiment Two, first set of rows, 1 mg/kg, 120 minutes): 35.14 ± 5.26 g
Mean change from baseline ± SEM ([1]; Experiment Two, second set of rows, 0.3 mg/kg, 20 minutes): 0.00 ± 7.42 g
Mean change from baseline ± SEM ([1]; Experiment Two, second set of rows, 0.3 mg/kg, 40 minutes): -4.86 ± 4.86 g
Mean change from baseline ± SEM ([1]; Experiment Two, second set of rows, 0.3 mg/kg, 60 minutes): 0.00 ± 0.00 g
Mean change from baseline ± SEM ([1]; Experiment Two, second set of rows, 0.3 mg/kg, 80 minutes): 4.86 ± 4.86 g
Mean change from baseline ± SEM ([1]; Experiment Two, second set of rows, 0.3 mg/kg, 120 minutes): 31.43 ± 5.54 g
Mean change from baseline ± SEM ([1]; Experiment Two, second set of rows, 1 mg/kg, 20 minutes): 9.71 ± 6.27 g
Mean change from baseline ± SEM ([1]; Experiment Two, second set of rows, 1 mg/kg, 40 minutes): 0.00 ± 10.49 g
Mean change from baseline ± SEM ([1]; Experiment Two, second set of rows, 1 mg/kg, 60 minutes): 16.14 ± 7.73 g
Mean change from baseline ± SEM ([1]; Experiment Two, second set of rows, 1 mg/kg, 80 minutes): 24.14 ± 7.56 g
Mean change from baseline ± SEM ([1]; Experiment Two, second set of rows, 1 mg/kg, 120 minutes): 12.86 ± 13.38 g
decrease of median-effect dose (Dm) after co-administration compared to the monotherapy ([1]; median-effect model, prednisolone/nortriptyline 1:3 fixed ratios): 10 fold
